According to publication PMC6947424, “New Targeted Gold Nanorods for the Treatment of Glioblastoma by Photodynamic Therapy” (Journal of Clinical Medicine, 2019):
Residues, ends and D or L forms follow the SMILES beside them. *: point of attachment. Pyropheophorbide(a) = C=Cc1c(C)c2cc3nc(c4c5[nH]c(cc6nc(cc1[nH]2)C(C)=C6CC)c(C)c5C(=O)C4)[C@@H](CCC(=O)*)[C@@H]3C; Hexanoyl(6-maleimido) = O=C1C=CC(=O)N1CCCCCC(=O)*

Experiments:
UV-vis absorption = type: physicochemical; conditions: ethanol, Soret band
Procedure: The setup and the protocol to evaluate the photophysical characterizations including the absorption, fluorescence, and singlet oxygen emission spectra in addition to the fluorescence and singlet oxygen lifetimes have been previously described by our team. The absorption spectra were recorded on a UV-3600 UV–vis double beam spectrophotometer (Shimadzu, Marne La Vallée, France) in the wavelength range of 200-800 nm. The measurements were performed on the molecules dispersed in ethanol in quartz cuvettes with an optical path of 10 mm. The fluorescence spectra were recorded on a Horiba Jobin Yvon Fluorolog-3 (FL3-222) spectrofluorimeter equipped with a 450W xenon lamp, a thermostated cell compartment (25 °C), a R928 (Hamamatsu, Massy, France) UV–vis photomultiplier and a liquid nitrogen cooled InGaAs infrared detector (DSS-16A020L Electro-Optical System Inc., Phoenixville, PA, USA). The excitation spectrometer used is a SPEX double grating monochromator (1200 grooves per mm blazed at 330 nm). The fluorescence was measured using the UV–vis detector through a SPEX double grating monochromator (600 grooves per mm blazed at 500 nm). The singlet oxygen production was measured using the IR detector through a SPEX double grating monochromator (600 grooves per mm blazed at 1 μm).
The photophysical properties at the different synthetic stages of the hybrid AuNRs@PEG-MI-K(Pyro)DKPPR-OH, including the peptide derivatives as intermediates, were studied and compared to that of free Pyro. These properties include the UV-vis absorption, the florescence emission (quantum yield (Φf) and lifetime (τf)) and the ^1O2 production (quantum yield (ΦΔ) and lifetime (τΔ)). To determine these properties, the optical density (OD) of the Soret band of the Pyro component (412 nm) was adjusted at about 0.2. Controls, such as TPP dissolved in toluene, as a standard for fluorescence emission, and RB dissolved in ethanol, as a standard for ^1O2 production, were used. Ethanol was chosen to dissolve the studied molecules since it is a convenient solvent for the detection of fluorescence and ^1O2 emission. […]

U87 glioblastoma cells = assay: MTT phototoxicity after light exposure, U87 cells; type: cell-based; conditions: 24 h; for PDT efficacy / photodynamic activity (in words): 10, 20 and 30 µM PS, 652 nm, 10 J/cm2, MTT; for decrease of cell viability: then 652 nm, 10 J/cm2 (4.54 mW·cm−2), MTT after further 24 h, triplicate
Procedure: For in vitro experiments, U87 glioblastoma cells (ATCC® HTB-14™) were cultivated in Dulbecco’s modified eagle’s medium (DMEM) supplemented with sodium pyruvate 1.5 mM, MEM AA, MEM NE AA, MEM vitamins, L-Ser 14 μg·mL^−1, L-asp 25 μg·mL^−1, L-Glu 2.5 mM, 100 U·mL^−1 penicillin, 100 μg·mL^−1 streptomycin, and 20% FCS. They were cultured under standard cell culture conditions while incubated in 5% CO2/80% humidified air at 37 °C.
Cell survival of U87 after incubation with the hybrid AuNRs, the PS-peptide conjugate or the free PS in the dark (cytotoxicity) or after light exposure (phototoxicity) was investigated using an MTT assay as previously described. Briefly, U87 cells were plated into 48-well plates at an initial cell density of 2 × 10^4 cells/cm^2 in culture medium, incubated at 37 °C during 48 h. Old culture media were discarded and the wells were filled with 250 µL of culture medium containing different concentrations of the tested molecules (AuNRs@PEG-MI-K(Pyro)DKPPR-OH, MI-K(Pyro)DKPPR-OH and Pyro) at a final PS concentration of 10, 20, and 30 μM. After 24 h, the wells were washed three times with HBSS and filled with culture medium. To evaluate the cytotoxicity of the tested molecules towards the U87 cells, one plate was kept incubated in the dark. However, the phototoxicity induced by those molecules was assessed by exposing the cells to light at a fluence of 10 J·cm^−2 (fluence rate 4.54 mW·cm^−2, duration: 36 min 42 s) using a 652 nm diode laser system (Ceralas, Biolytec, Jena, Germany). The cells were further incubated for 24 h. The cell survival was measured by MTT assay where the cells were incubated for 3 h at 37 °C with 0.4 mg·mL^−1. After that, the excess of MTT was discarded and the formazan crystals that developed in the living cells were dissolved by DMSO. The absorption of formazan was measured at 540 nm with a background subtraction at 630 nm using a Multiskan Ascent plate reader (Thermo Scientific, Vantaa, Finland). Experiments were carried out in triplicates.
All in vitro experiments were realized in triplicate and expressed as a percentage of variation from control cells. The results were given as mean ± standard deviation (SD). Differences among groups were evaluated using variance analysis (Anova) followed by Bonferroni test (GraphPad Prism 6.0 software, San Diego, CA, USA). A value of p < 0.05 was considered as statistically significant. * Versus control cells.

[1] = in methanol; ref [16]; cited from earlier work
Procedure: Fluorescence quantum yields (Φf) were determined using a tetraphenyl porphyrin (TPP) solution as the fluorescence standard (Φf = 0.11 in toluene, taking into account solvent refractive index and absorption efficiencies. For the direct determination of ^1O2 quantum yield (ΦΔ), excitation was performed with a Xe-arc, the light was separated in a SPEX 1680, 0.22 µm double monochromator. Detection at 1270 nm was carried out through a PTI S/N 1565 monochromator and the emission was monitored by a liquid nitrogen cooled Ge-detector (EO-817L, North Coast Scientific Co, OH, USA). Rose Bengal (R ... || These findings are also consistent with the Φf value of Pyro reported by other authors (Φf = 0.3 and in methanol). […] This property can serve in the ...

[2] = tends to aggregate easily; ref [3],[4],[14],[86]; cited from earlier work
[3] = Estimation of PS or peptide loading / molar extinction coefficient; type: physicochemical; conditions: water, 381 nm, from calibration curve
Procedure: The loading of the PS onto the AuNRs was estimated relying on the molar extinction coefficient (ε) calculated for the MI-K(Pyro)DKPPR-OH conjugate. A calibration curve was developed based on the different concentrations of the conjugate, in water, that correspond to different optical densities (OD). The ε was determined using Beer Lambert’s Law at 381 nm, which constitutes the wavelength of the Soret band of Pyro in water. (3) A = εLC where A, ε, L and C stand for the absorption (OD), molar absorptivity (extinction, L·mol^−1·cm^−1), length (cm) and concentration (mol·L^−1).
The concentration of Pyro in AuNRs@PEG-MI-K(Pyro)DKPPR-OH was calculated for a mass concentration of 1 mg·mL^−1. Moreover, the concentration of the peptide was also determined, as only 1 peptide unit is conjugated to 1 PS molecules. On this basis, the amount of peptide was also estimated to 1 mg·mL^−1 of the functionalized AuNRs.

Row | Compound | λmax (UV-vis absorption) | PDT efficacy / photodynamic activity (in words) (U87 glioblastoma cells) | Φf (fluorescence quantum yield) [1] | solubility in biological media [2] | decrease of cell viability (U87 glioblastoma cells; 10 µM PS) | decrease of cell viability (U87 glioblastoma cells; 20 µM PS) | decrease of cell viability (U87 glioblastoma cells; 30 µM PS) | molar extinction coefficient (ε) [3]
1 | C=Cc1c(C)c2cc3nc(c4c5[nH]c(cc6nc(cc1[nH]2)C(C)=C6CC)c(C)c5C(=O)C4)[C@@H](CCC(=O)O)[C@@H]3C [Pyro, pyropheophorbide-a, reference compound] | 412 nm | low PDT efficacy | 0.3 | poorly soluble in biological media |  |  |  | 
2 | C=Cc1c(C)c2cc3nc(c4c5[nH]c(cc6nc(cc1[nH]2)C(C)=C6CC)c(C)c5C(=O)C4)[C@@H](CCC(=O)NCCCC[C@H](NC(=O)CCCCCN1C(=O)C=CC1=O)C(=O)N[C@@H](CC(=O)O)C(=O)N[C@@H](CCCCN)C(=O)N1CCC[C@H]1C(=O)N1CCC[C@H]1C(=O)N[C@@H](CCCNC(=N)N)C(=O)O)[C@@H]3C [MI-K(Pyro)DKPPR-OH] ({Hexanoyl(6-maleimido)}-K(Pyropheophorbide(a))DKPPR-OH) | 412 nm | lower photodynamic activity |  |  | 25% | 46% | 58% | 64012 L/mol/cm
